Like-named read-outs stand apart in the source and are kept apart here.
Key:
[1] = test system: influenza A virus (A/PR/8/34); experiment: microbe, parasite or virus in culture; assay type: cell-based
influenza A virus = experiment: microbe, parasite or virus in culture; assay type: cell-based
influenza = experiment: Influenza Therapeutic Mouse Model; assay type: in vivo; settings: Balb/c mice, 30 mg/kg BID × 10 days, dosing @ 48 hours post infection
[2] = Influenza A virus, PR/8, MDCK, 72 h, read-out: Flu, MDCK IC50
[3] = Influenza A virus, viral RNA 50% of control wells, 18-36 hours, mean all, read-out: bDNA EC50
[4] = Influenza A virus, PR/8, MDCK, MDCK cells, A/PR/8/34, CPE assay, read-out: IC50
[5] = Influenza A virus, bDNA viral RNA assay, read-out: EC50
[6] = viral RNA 50% of control wells, 18-36 hours, mean all, read-out: bDNA EC50

Compound | IC50 [1, 2] | EC50 (influenza A virus; [3]) | also measured
O=C(O)[C@H]1C2CCC(CC2)[C@@H]1Nc1nc(-c2n[nH]c3ncc(Cl)cc23)c(F)cc1F (racemic) [Compound I-6, (2S,3S)-3-((6-(5-chloro-1H-pyrazolo[3,4-b]pyridin-3-yl)-3,5-difluoropyridin-2-yl)-amino)bicyclo[2.2.2]octane-2-carboxylate] | < 3.3 µM | < 3.3 µM | 
O=C(O)[C@H]1C2CCC(CC2)[C@@H]1Nc1cncc(-c2n[nH]c3ncc(F)cc23)n1 (racemic) [Compound I-9, (+/−)-trans-(2,3)-3-((6-(5-fluoro-1H-pyrazolo[3,4-b]pyridin-3-yl)pyrazin-2-yl)amino)bicyclo[2.2.2]octane-2-carboxylic acid] | < 3.3 µM | < 3.3 µM | IC50 [1, 4]: 0.017 µM; EC50 (influenza A virus; [5]): 0.034 µM
N#Cc1cc(F)c(N[C@H]2C3CCC(CC3)[C@@H]2C(=O)O)nc1-c1n[nH]c2ncc(F)cc12 (racemic) [Compound I-12] | < 3.3 µM | < 3.3 µM | 
O=C(O)C1C2CCC(CC2)C1Nc1cnnc(-c2n[nH]c3ncc(F)cc23)n1 (racemic) [Compound I-17, (+/−)-trans-3-((3-(5-fluoro-1H-pyrazolo[3,4-b]pyridin-3-yl)-1,2,4-triazin-5-yl)amino)bicyclo[2.2.2]octane-2-carboxylic acid] | < 3.3 µM | < 3.3 µM | 
N#Cc1cc(F)c(NC2C3CCC(CC3)C2C(=O)O)cc1-c1n[nH]c2ncc(F)cc12 (racemic) [Compound I-21, (+/−)-trans-3-((4-cyano-2-fluoro-5-(5-fluoro-1H-pyrazolo[3,4-b]pyridin-3-yl)phenyl)amino)bicyclo[2.2.2]octane-2-carboxylic acid] | < 3.3 µM | < 3.3 µM | 
O=C(O)[C@H]1C2CCC(CC2)[C@@H]1Nc1nc(-c2n[nH]c3ncc(F)cc23)c(F)cc1F (stereo in doubt) [Compound I-5] | < 3.3 µM | < 3.3 µM | 
O=C(O)[C@H]1C2CCC(CC2)[C@@H]1Nc1nc(-c2n[nH]c3ncc(F)cc23)ccc1F (stereo in doubt) [Compound I-7] | < 3.3 µM | < 3.3 µM | 
CCOC(=O)[C@@H]1CCC[C@H](Nc2nc(-c3n[nH]c4ncc(F)cc34)c(F)cc2F)C1 [Compound I-1, (1R,3S)-ethyl 3-(3,5-difluoro-6-(5-fluoro-1H-pyrazolo[3,4-b]pyridin-3-yl)pyridin-2-ylamino)cyclohexanecarboxylate] | < 3.3 µM | < 3.3 µM | 
O=C(O)[C@@H]1CCC[C@H](Nc2nc(-c3n[nH]c4ncc(F)cc34)c(F)cc2F)C1 [Compound I-2, (1R,3S)-3-(3,5-difluoro-6-(5-fluoro-1H-pyrazolo[3,4-b]pyridin-3-yl)pyridin-2-ylamino)cyclohexanecarboxylic acid] | < 3.3 µM | < 3.3 µM | 
Cn1cnc(C(=O)N[C@@H]2CCC[C@H](Nc3nc(-c4n[nH]c5ncc(F)cc45)c(F)cc3F)C2)c1 [Compound I-3, N-((1R,3S)-3-(3,5-difluoro-6-(5-fluoro-1H-pyrazolo[3,4-b]pyridin-3-yl)pyridin-2-ylamino)cyclohexyl)-1-methyl-1H-imidazole-4-carboxamide] | < 3.3 µM | < 3.3 µM | 
O=C(O)[C@H]1C2CCC(CC2)[C@@H]1Nc1nc(-c2n[nH]c3ncc(F)cc23)c(F)cc1F [Compound I-8, sodium (2S,3S)-3-(3,5-difluoro-6-(5-fluoro-1H-pyrazolo[3,4-b]pyridin-3-yl)pyridin-2-ylamino)bicyclo[2.2.2]octane-2-carboxylate] |  |  | IC50 [1, 4]: 3.57 µM; EC50 (influenza A virus; [5]): 0.007 µM; EC50 (influenza A virus; [6]): < 3.3 µM; WBP (Penh; Day 6) (influenza; Whole Body Plethysmography, study day 6/7): 2.03; Percent Weight Loss (Day 8) (influenza; post challenge day 8): 20.8%; Percent Survival (influenza; survival scored for 21 days): 100%
O=C(O)[C@@H]1C2CCC(CC2)[C@H]1Nc1nc(-c2n[nH]c3ncc(F)cc23)ccc1F [Compound I-10] |  | < 3.3 µM | 
O=C(O)[C@H]1C2CCC(CC2)[C@@H]1Nc1nc(-c2n[nH]c3ncc(F)cc23)ccc1F [Compound I-11, (2S,3S)-3-(3-fluoro-6-(5-fluoro-1H-pyrazolo[3,4-b]pyridin-3-yl)pyridin-2-ylamino)bicyclo[2.2.2]octane-2-carboxylic acid] |  |  | IC50 ([1]; read-out: Flu, MDCK IC50): < 3.3 µM; EC50 (influenza A virus; [6]): < 3.3 µM
O=C(O)[C@@H]1C2CCC(CC2)[C@H]1Nc1cncc(-c2n[nH]c3ncc(F)cc23)n1 [Compound I-13, (2R,3R)-3-((6-(5-fluoro-1H-pyrazolo[3,4-b]pyridin-3-yl)pyrazin-2-yl)amino)bicyclo-[2.2.2]octane-2-carboxylic acid] | < 3.3 µM | < 3.3 µM | 
O=C(O)[C@H]1C2CCC(CC2)[C@@H]1Nc1cncc(-c2n[nH]c3ncc(F)cc23)n1 [Compound I-14, (2S,3S)-3-((6-(5-fluoro-1H-pyrazolo[3,4-b]pyridin-3-yl)pyrazin-2-yl)amino)bicyclo-[2.2.2]octane-2-carboxylic acid] | < 3.3 µM | < 3.3 µM | 
N#Cc1cc(F)c(N[C@H]2C3CCC(CC3)[C@@H]2C(=O)O)nc1-c1n[nH]c2ncc(F)cc12 [Compound I-15, (2S,3S)-3-((5-cyano-3-fluoro-6-(5-fluoro-1H-pyrazolo[3,4-b]pyridin-3-yl)pyridin-2-yl)amino)bicyclo[2.2.2]octane-2-carboxylic acid] | < 3.3 µM | < 3.3 µM | 
N#Cc1cc(F)c(N[C@@H]2C3CCC(CC3)[C@H]2C(=O)O)nc1-c1n[nH]c2ncc(F)cc12 [Compound I-16] | < 3.3 µM | < 3.3 µM | 
O=C(N[C@@H]1CCC[C@H](Nc2nc(-c3n[nH]c4ncc(F)cc34)c(F)cc2F)C1)c1csc(Cl)c1 [Compound I-18, 5-chloro-N-((1R,3S)-3-((3,5-difluoro-6-(5-fluoro-1H-pyrazolo[3,4-b]pyridin-3-yl)pyridin-2-yl)amino)cyclohexyl)thiophene-3-carboxamide] | < 3.3 µM | < 3.3 µM | 
O=C(N[C@@H]1CCC[C@H](Nc2nc(-c3n[nH]c4ncc(F)cc34)c(F)cc2F)C1)c1ccsc1 [Compound I-19, N-((1R,3S)-3-((3,5-difluoro-6-(5-fluoro-1H-pyrazolo[3,4-b]pyridin-3-yl)pyridin-2-yl)amino)cyclohexyl)thiophene-3-carboxamide] | < 3.3 µM | < 3.3 µM | 
N#Cc1cc(F)c(N[C@H]2C3CCC(CC3)[C@@H]2C(=O)O)cc1-c1n[nH]c2ncc(F)cc12 [Compound I-20] |  |  | IC50 ([1]; read-out: Flu, MDCK IC50): < 3.3 µM; EC50 (influenza A virus; [6]): < 3.3 µM

Source: patent US20140005197A1, “INHIBITORS OF INFLUENZA VIRUSES REPLICATION” (Vertex Pharmaceuticals Incorporated, priority 2010, published 2014)
